Tests used:
Format in all cases: in vivo, BALB/c mice
[1] = test system: anti-OVA-specific IgE antibody; assay: Allergy inducing activity test: anti-OVA-specific IgE antibody in serum of OVA-immunized mice (DS mouse IgE ELISA (OVA) kit); conditions: for anti-OVA-specific IgE antibody production: after secondary immunization, dorsal-subcutaneous; for allergy inducing activity as compared to Addavax: conclusion from IgE after secondary immunization, compound in 5% αCD-added saline
Method: 8-Week-old female BALB/c mice were divided into groups (N=6), and each group was primarily immunized by dorsal-subcutaneous administration of (1) ovalbumin (OVA) (5 μg) dissolved in saline as an antigen (OVA single administration group), (2) OVA 5 μg and Addavax™ (mixed with saline at 1:1) dissolved in saline (Addavax™ administration group) as positive control adjuvant, (3) OVA 5 μg and SZ137 0.256 μmol dissolved or dispersed in 5% α-cyclodextrin (hereinafter to be simply referred to as αCD)-added saline (SZ137 administration group), (4) OVA (5 μg) and SZ138 (0.256 μmol) dissolved or dispersed in 5% αCD-added saline (SZ138 administration group), (5) OVA (5 μg) and SZ142 (0.256 μmol) dissolved or dispersed in 5% αCD-added saline (SZ142 administration group), (6) OVA (5 μg) and SZ144 (0.256 μmol) dissolved or dispersed in 5% αCD-added saline (SZ144 administration group), (7) OVA (5 μg) and SZ145 (0.256 μmol) dissolved or dispersed in 5% αCD-added saline (SZ145 administration group), (8) OVA (5 μg) and SZ146 (0.256 μmol) dissolved or dispersed in 5% αCD-added saline (SZ146 administration group), (9) OVA (5 μg) and SZ147 (0.256 μmol) dissolved or dispersed in 5% αCD-added saline (SZ147 administration group), (10) OVA (5 μg) and SZ148 (0.256 μmol) dissolved or dispersed in 5% αCD-added saline (SZ148 administration group), each per mouse. Two week later, the secondary immunization was carried out by dorsal-subcutaneous administration of solutions or dispersions similar to those of the above-mentioned (1)-(10) again. Two weeks from the secondary immunization, the whole blood was extracted under anesthesia, and the obtained serum sample was measured for anti-OVA-specific IgG1 subclass antibody, anti-OVA-specific IgG2a subclass antibody, and anti-OVA-specific IgE antibody.
The measurement method of the anti-OVA-specific IgE antibody in Experimental Example 1 and the following Experimental Examples 2-5, 8-10 is as follows.
DS mouse IgE ELISA (OVA) kit manufactured by DS Pharma Biomedical Co., Ltd. was used. The protocol is briefly shown below.
The serum sample and a standard reagent for drawing an analytical curve are diluted with a buffer and, after stirring, left standing at room temperature for 10 min. The sample and the standard solution are added to a plate bound with an IgE capture antibody in advance and, after stirring, the mixture is left standing at room temperature for 60 min. The mixture is washed three times with wash, HRP-labeled OVA is added, and the mixture is left standing at room temperature for 30 min. The mixture is washed three times with wash, a substrate solution is added, and the mixture is left standing in dark at room temperature for 30 min. A reaction quenching liquid is added, the mixture is stirred, and the absorbance (OD Value=450 nm) is immediately measured.
The standard used is one attached to the kit, the standard curve is drawn from the measured OD Value, and the concentration is calculated. […]

[2] = test system: anti-OVA-specific IgG1 and IgG2a subclass antibody / anti-OVA-specific IgE antibody; assay: Effective Index: index for adjuvant enhancing antibody production and not inducing allergy (IgG1 or IgG2a / IgE, relative to Addavax = 1.0)
Method: The serum samples obtained in Experimental Example 1 were evaluated for utilizability as an adjuvant to cause enhancement of antibody production by each compound and not induce allergy based on the following index (Effective Index). Whether each compound can be used as an adjuvant to cause enhancement of antibody production and not induce allergy was also evaluated in the same manner in the following Experimental Examples 2-10.
It is a problem that Addavax™ potentiates antigen-specific antibody production but induces allergy. Therefore, the index for adjuvant not inducing allergy (Effective Index) was defined as follows, and an index of each administration group in Experimental Examples 1-10 was calculated. That is, a value obtained by dividing mean of the concentrations of anti-OVA-specific IgG1 subclass antibody and anti-OVA-specific IgG2a subclass antibody of each group by mean of anti-OVA-specific IgE antibody concentration of each group was relatively compared with a value obtained by dividing mean of the concentrations of anti-OVA-specific IgG1 subclass antibody and anti-OVA-specific IgG2a subclass antibody of Addavax™ administration group by mean of anti-OVA-specific IgE antibody concentration of Addavax™ administration group as 1.0.

[3] = test system: anti-OVA-specific IgE antibody; assay: Allergy inducing activity test: anti-OVA-specific IgE antibody in serum of OVA-immunized mice (DS mouse IgE ELISA (OVA) kit); conditions: for anti-OVA-specific IgE antibody production: Experimental Example 4: after secondary immunization, compound 0.256 μmol dissolved in saline (no αCD)
[4] = OVA 5 μg + compound 0.256 μmol in 5% αCD-added saline (Addavax mixed with saline at 1:1), compared to OVA single administration group
[5] = OVA 5 μg + compound 0.256 μmol in 5% αCD-added saline, compared to Addavax administration group
[6] = after secondary immunization, compound in 5% αCD-added saline, IgG1/IgE and IgG2a/IgE production amounts relative to Addavax administration group (1.0)

SMILES | anti-OVA-specific IgE antibody production [1, 5] | anti-OVA-specific IgE antibody production [1, 4] | allergy inducing activity as compared to Addavax [1] | other results
CCCCCCCCCCCCCCCC(=O)N[C@@H](CCCNC(=N)N)C(=O)NCCCCCCCCCCCC.Cl [SZ111, N-[(1S)-1-(dodecylcarbamoyl)-4-guanidino-butyl]hexadecanamide hydrochloride] | lower | did not increase significantly | may have a lower allergy inducing activity | Effective Index ([2]; Experimental Example 4: after secondary immunization, compound dissolved in saline, IgG1/IgE and IgG2a/IgE relative to Addavax administration group (1.0)): > 1.0; Effective Index [2, 6]: > 1.0; anti-OVA-specific IgE antibody production ([3]; compared to Addavax administration group): lower; anti-OVA-specific IgE antibody production ([3]; compared to OVA single administration group): significantly increased; allergy inducing activity as compared to Addavax ([3]; Experimental Example 4: conclusion from IgE after secondary immunization, compound dissolved in saline): may have a lower allergy inducing activity
CCCCCCCCCCCCCCCCCCCCCC(=O)N[C@@H](CCCNC(=N)N)C(=O)NCCCCCCCCCCCC.Cl [SZ138, N-[(1S)-1-(dodecylcarbamoyl)-4-guanidino-butyl]docosanamide hydrochloride] |  | an increase in the anti-OVA-specific IgE antibody production was not observed | may have a lower allergy inducing activity | 
CCCCCCCCCCCCCCCCCCCCCC(=O)N[C@@H](CC(C)C)C(=O)NCCCCCCCCCCC [SZ142, N-[(1S)-3-methyl-1-(undecylcarbamoyl)butyl]docosanamide] |  | an increase in the anti-OVA-specific IgE antibody production was not observed | may have a lower allergy inducing activity | 
CCCCCCCCCCCCCCCC(=O)N[C@@H](CC(C)C)C(=O)NCCCCCCCCCCCC [SZ144, N-[(1S)-1-(dodecylcarbamoyl)-3-methyl-butyl]hexadecanamide] |  | an increase in the anti-OVA-specific IgE antibody production was not observed | may have a lower allergy inducing activity | 
CCCCCCCCCCCCCCCCCCCCCC(=O)NCC(C)(C)C(=O)NCCCCCCCCCCCC [SZ148, N-[3-(dodecylamino)-2,2-dimethyl-3-oxo-propyl]docosanamide] |  | an increase in the anti-OVA-specific IgE antibody production was not observed | may have a lower allergy inducing activity | 
CCCCCCCCCCCCCCCC(=O)N[C@@H](CCCCN)C(=O)NCCCCCCCCCCCC.Cl [SZ153, N-[(1S)-5-amino-1-(dodecylcarbamoyl)pentyl]hexadecanamide hydrochloride] |  | an increase in the anti-OVA-specific IgE antibody production was not observed | may have a lower allergy inducing activity | Effective Index [2, 6]: > 1.0
CCCCCCCC/C=C/CCCCCCCC(=O)N[C@@H](CCCNC(=N)N)C(=O)NCCCCCCCCCCCC.Cl [SZ161, (E)-N-[(1S)-1-(dodecylcarbamoyl)-4-guanidino-butyl]octadeca-9-enamide hydrochloride] | lower |  | allergy inducing activity equivalent to or not more than that of Addavax™ | 

Now from value to compound, other results behind:

anti-OVA-specific IgE antibody production [1, 5] | SMILES | anti-OVA-specific IgE antibody production [1, 4] | allergy inducing activity as compared to Addavax [1] | other results
lower | CCCCCCCCCCCCCCCCCCCCCC(=O)N[C@@H](CCCNC(=N)N)C(=O)NCCCCCCC.Cl [SZ163, N-[(1S)-4-guanidino-1-(heptylcarbamoyl)butyl]docosanamide hydrochloride] |  | allergy inducing activity equivalent to or not more than that of Addavax™ | 
lower | CCCCCCCCCCCCCCCCCCCCCC(=O)N[C@@H](CCCN)C(=O)NCCCCCCCCCCCC.Cl [SZ165, N-[(1S)-4-amino-1-(dodecylcarbamoyl)butyl]docosanamide hydrochloride] |  | allergy inducing activity equivalent to or not more than that of Addavax™ | 
lower | CCCCCCCCCCCCCCCCCCCCCC(=O)N[C@@H](CCCCNC(=N)N)C(=O)NCCCCCCCCCCCC.Cl [SZ166, N-[(1S)-1-(dodecylcarbamoyl)-5-guanidino-pentyl]docosanamide hydrochloride] |  | allergy inducing activity equivalent to or not more than that of Addavax™ | 
lower | CCCCCCCCCCCCCCCCCCCCCC(=O)N[C@@H](CCCCNC(C)=O)C(=O)NCCCCCCCCCCCC [SZ167, N-[(1S)-5-acetamide-1-(dodecylcarbamoyl)pentyl]docosanamide] |  | allergy inducing activity equivalent to or not more than that of Addavax™ | 
lower | CCCCCCCCCCCCCCCCNC(=O)N[C@@H](CCCNC(=N)N)C(=O)NCCCCCC.Cl [SZ168, (2S)-5-guanidino-2-(hexadecylcarbamoylamino)-N-hexyl-pentanamide hydrochloride] |  | allergy inducing activity equivalent to or not more than that of Addavax™ | 
